Measurements as given in patent US11389497B2, “Pharmaceutical composition for treating cancer” (Institute of Advance Sciences, Inc., priority 2019, dated 2022).
Where two headings read alike, the source gives them in different places.

Experiments:
[1] = tested on: ST88-14 cells; assay: MTS cell viability / proliferation assay; format: cell-based, human; conditions: OSHP-1 50-300 ng/ml, 0-72 h
Protocol: FIG. 4 illustrates a report on cell Viability Assays using the MTS Assay Kit (Colorimetric) (ab 197010) Cell proliferation, in accordance with an exemplary embodiment of the present disclosure. As shown, viability and cytotoxicity was assessed on cells. Cells were treated with the appropriate concentrations of OSHP-1 for 24, 48 and 72 h.
Effect of OSHP-1 on Cell proliferation: We performed MTS assays using cells and treated with increasing concentrations of OSHP-1 (50-300 ng/ml) for 0-72 h.

[2] = tested on: ST88-14 cells; assay: Real-time quantitative PCR of tumorigenic genes in ST88-14 cells; format: cell-based, human; conditions: 48 h, normalized by GAPDH
Protocol: Effect of OSHP-1 on the expression of tumorigenic genes. To ascertain whether OSHP-1 decreased the proliferation of ST 88-14 cells, by decreasing the expression of tumorigenic genes, total RNA was isolated from the ST88-14 cells as well as normal Human Schwann cells treated with varying concentrations of OSHP-1 (for 48 h) mentioned above. The RNA was reverse transcribed to cDNA and subjected to quantitative PCR using reverse and forward primers of FAX2, FOXN4, IGF2 TLXI genes (Lee et 2014), and was normalized by the expression of GAPDH (FIG. 5A).

[3] = tested on: lysine acetyltransferase 7 (KAT 7); assay: Immunoblot of nuclear fraction for histone acetyl transferases; format: cell-based, human; conditions: nuclear extract of ST88-14 cells, OSHP-1 50-300 ng/ml, 48 h
[4] = tested on: HDAC2; assay: Immunoblot of nuclear fraction for NuRD components; format: cell-based, human; conditions: nuclear extract of ST88-14 cells, OSHP-1 50-300 ng/ml, 48 h
Description: CBP, KAT2A, KAT7 acetyl transferases and CHD4, MTA2, MBD2/3, HDAC2, GATA 2 (NuRD) components and b-actin antibodies.

[5] = tested on: ST88-14 cells; assay: Soft Agar colony formation assay (anchorage independent growth); format: cell-based, human; conditions: colonies counted manually
Description: FIG. 7A illustrates a report on effect of OSHP-1 on anchorage independent growth or metastasis, in accordance with an exemplary embodiment of the present disclosure: To determine whether OSHP-1 and its individual components can block the anchorage independent growth of ST88-14 cells, and Normal Human Schwann Cells, by subjecting the cells to Soft Agar colony formation assays the absence and presence of (A) OSHP-1.
FIG. 7B illustrates a report on AA, RA, CA and mixture of three, and the colonies were counted manually, in accordance with an exemplary embodiment of the present disclosure.
(§1) Effect of OSHP-1 on anchorage independent growth or metastasis. To determine whether OSHP-1 and its individual components can block the anchorage independent growth of ST-8814 cells, and Normal Human Schwann by subjecting the cells to Soft Agar colony formation assays in the absence and presence of OSHP-1, AA, RA, CA and mixture of three, and the colonies were counted manual. […] Additionally, we also tested whether OSHP-1 and AA, RA, and CA affect the invasiveness of human metastatic melanoma.

[6] = tested on: ST88-14 cells; assay: Scratch assay in ST88-14 cells; format: cell-based, human
Description: FIG. 7C illustrates a report on a scratch assay protocol performed using ST88-14 cells in the absence or presence of OSHP-1, AA, RA, CA, in accordance with an exemplary embodiment of the present disclosure.
as §1

[7] = tested on: human metastatic melanoma; assay: Scratch assay in human metastatic melanoma; format: cell-based

Molecule	viability and proliferation of ST88-14 cells [1]	FAX2 (PAX2) expression [2]	FOXN4 expression [2]	IGF2 expression [2]	lysine acetyl transferase KAT 7 activity / levels [3]	HDAC2 activity / levels [4]	TLXI (TLX2) expression [2]	anchorage independent growth [5]	invasion and metastasis in scratch assay [6]	invasion and metastasis in scratch assay ([6]; listed as RA)	migration of cells in scratch assay [7]
CN1c2c(nc(N)[nH]c2=O)NCC1CNc1ccc(C(=O)N[C@@H](CCC(=O)O)C(=O)O)cc1 (some centres unmarked) [MTHF, 5-methyl tetra hydro folate]	increases the cell proliferation	–	–	–	–	–	–	–	–	–	–
caffeoylquinic acid	–	down-regulated	down-regulated	down-regulated	decreases	–	–	–	–	–	–
O=C1O[C@H]([C@@H](O)CO)C(O)=C1O [ascorbic acid]	–	down-regulated	–	down-regulated	decreased	increased	down-regulated	–	–	–	–
O=C(/C=C/c1ccc(O)c(O)c1)O[C@H](Cc1ccc(O)c(O)c1)C(=O)O [rosmarinic acid]	–	down-regulated	–	down-regulated	–	–	down-regulated	responsible for the blocking of anchorage independent growth	decreased metastasis	responsible for the blocking of anchorage independent growth, invasion and metastasis of MPNSTs	the one contributing to this property
